Assay results taken from patent US20060069110A1, “Substituted heterocyclic compounds and methods of use” (priority 2004, published 2006).

What follows are compounds tested on THP1 cells (LPS induced TNF release) (assay: Lipopolysaccharide-Activated THP1 Cell TNF Production Assay). Settings: Homo sapiens, THP-1; THP1 cells, bacterial LPS, secreted TNF-α after 3 h at 37° C.; read-out: IC50 values in the THP1 cell assay (LPS induced TNF release).
Format: cell-based
Procedure, shortened: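 THP1 cells at 1E6/mL were treated with 3-fold serial compound dilutions and LPS (1 μg/mL stock) for 3 h at 37 °C. Secreted TNF-α was quantified by electrochemiluminescent sandwich immunoassay. Percent of DMSO control versus concentration was fitted to a 4-parameter equation.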

IC50 [µM] | Structure (SMILES)
≤ 20 | CC(=O)N1CCC(Nc2nccc(N(C)c3ccnc(-c4ccccc4)n3)n2)CC1 [Example 22, 1-(4-(4-(Methyl(2-phenylpyrimidin-4-yl)amino)pyrimidin-2-ylamino)piperidin-1-yl)ethanone]
≤ 20 | CN(c1ccnc(NCCc2cccnc2)n1)c1ccnc(-c2ccccc2C(F)(F)F)n1 [Example 75, N^4-Methyl-N^2-(2-(pyridin-3-yl)ethyl)-N^4-(2-(2-(trifluoromethyl)phenyl)pyrimidin-4-yl)pyrimidine-2,4-diamine]
≤ 20 | CN(c1ccnc(N[C@@H](CCO)c2ccccc2)n1)c1ccnc(-c2ccccc2)n1 [Example 30, (S)-3-(4-(Methyl(2-phenylpyrimidin-4-yl)amino)pyrimidin-2-ylamino)-3-phenylpropan-1-ol]
≤ 20 | C[C@@H](Cc1cc(C#N)ccc1Cl)Nc1nccc(N(C)c2ccnc(-c3ccccc3)n2)n1 [Example 41, (S)-4-Chloro-3-(2-(4-(methyl(2-phenylpyrimidin-4-yl)amino)pyrimidin-2-ylamino)-propyl)benzonitrile]
≤ 20 | Cc1ccc(-c2cccc(N(C)c3ccnc(NCCc4ccccc4)n3)n2)cc1 [Example 137, N^4-Methyl-N^2-phenethyl-N^4-(6-p-tolylpyridin-2-yl)-pyrimidine-2,4-diamine]
≤ 20 | CN(c1c[nH]c(=O)c(-c2ccccc2)c1)c1ccnc(NCCc2ccccc2)n1 [Example 166, 5-(Methyl(2-(phenethylamino)pyrimidin-4-yl)amino)-3-phenylpyridin-2(1H)-one]
≤ 20 | CC(Cc1cccc(CN)c1)Nc1nccc(N(C)c2cc(N)nc(-c3ccccc3)n2)n1 (stereo not shown) [Example 181, N^4-(2-(1-(3-(Aminomethyl)phenyl)propan-2-ylamino)pyrimidine-4-yl)-N^4-methyl-2-phenylpyrimidine-4,6-diamine]
≤ 20 | CN(c1ccnc(NCCc2ccc3c(n2)NCCC3)n1)c1ccnc(-c2ccccc2)n1 [Example 114, N^4-Methyl-N^4-(2-phenylpyrimidin-4-yl)-N^2-(2-(5,6,7,8-tetrahydro-1,8-naphthyridin-2-yl)ethyl)pyrimidine-2,4-diamine]
≤ 20 | CN(c1ccnc(NCCc2cccnc2)n1)c1ccnc(-c2cccc(F)c2F)n1 [Example 76, N^4-(2-(2,3-Difluorophenyl)pyrimidin-4-yl)-N^4-methyl-N^2-(2-(pyridin-3-yl)ethyl)-pyrimidine-2,4-diamine]
≤ 20 | CN(c1ccnc(N[C@H](Cc2ccccc2)CN2CCOCC2)n1)c1ccnc(-c2ccccc2)n1 [Example 53, (R)-N^4-methyl-N^2-(3-morpholino-1-phenylpropan-2-yl)-N^4-(2-phenylpyrimidin-4-yl)pyrimidine-2,4-diamine]
≤ 20 | C[C@H](N)C(=O)N[C@H]1CC[C@H](Nc2nccc(N(C)c3ccnc(-c4ccccc4)n3)n2)CC1 [Example 25, (S)-2-Amino-N-(4-(4-(methyl(2-phenylpyrimidin-4-yl)amino)pyrimidin-2-ylamino)cyclohexyl)propanamide]
≤ 20 | CN(c1cccc(-c2cccs2)n1)c1ccnc(NCCc2ccccc2)n1 [Example 150, N^4-Methyl-N^2-phenethyl-N^4-(6-(thiophen-2-yl)pyridin-2-yl)pyrimidine-2,4-diamine]
≤ 20 | C[C@@H](Cc1cccc(CN)c1)Nc1nccc(N(C)c2nc(N)cc(-c3ccccc3)n2)n1 [Example 8, (S)-N^4-(4-Amino-6-phenylpyrimidin-2-yl)-N^2-(1-(3-(aminomethyl)phenyl)propan-2-yl)-N^4-methylpyrimidine-2,4-diamine]
≤ 20 | CN(c1ccnc(NC[C@H](O)c2ccccc2)n1)c1ccnc(-c2ccccc2)n1 [Example 110, (R)-2-(4-(Methyl(2-phenylpyrimidin-4-yl)amino)pyrimidin-2-ylamino)-1-phenyl-ethanol]
≤ 20 | CN(c1ccnc(NCCc2cccnc2)n1)c1ccnc(-c2ccc(F)cc2F)n1 [Example 77, N^4-(2-(2,4-Difluorophenyl)pyrimidin-4-yl)-N^4-methyl-N^2-(2-(pyridin-3-yl)ethyl)-pyrimidine-2,4-diamine]
≤ 20 | CN(c1ccnc(NCCc2cccnc2)n1)c1nc(-c2ccccc2)ncc1C(N)=O [Example 64, 4-(Methyl(2-(2-(pyridin-3-yl)ethylamino)pyrimidin-4-yl)amino)-2-phenyl-pyrimidine-5-carboxamide]
≤ 20 | C[C@@H](Cc1cccc(CN)c1)Nc1nccc(N(C)c2nc(-c3ccccc3)ncc2F)n1 [Example 66, (S)-N^2-(1-(3-(Aminomethyl)phenyl)propan-2-yl)-N^4-(5-fluoro-2-phenylpyrimidin-4-yl)-N^4-methylpyrimidine-2,4-diamine]
≤ 20 | C[C@@H](Cc1cccc(C(C)(C)N)c1)Nc1nccc(N(C)c2ccnc(-c3ccccc3)n2)n1 [Example 29, (S)-N^2-(1-(3-(2-Aminopropan-2-yl)phenyl)propan-2-yl)-N^4-methyl-N^4-(2-phenylpyrimidin-4-yl)pyrimidine-2,4-diamine]
≤ 20 | CC(C)[C@H](CC(=O)N1CCOCC1)Nc1nccc(N(C)c2ccnc(-c3ccccc3)n2)n1 [Example 61]

IC50 [µM] | Structure (SMILES)
≤ 20 | CCOC(=O)c1cnc(-c2ccccc2)nc1Nc1ccnc(NCCc2ccccn2)n1 [Example 98, Ethyl 2-phenyl-4-(2-(2-(pyridin-2-yl)ethylamino)pyrimidin-4-ylamino)pyrimidine-5-carboxylate]
≤ 20 | CC(Cc1cccc(CO)c1)Nc1nccc(N(C)c2cc(N)nc(-c3ccccc3)n2)n1 (stereo not shown) [Example 119, (3-(2-(4-((6-Amino-2-phenylpyrimidin-4-yl)(methyl)amino)pyrimidin-2-ylamino) -propyl)phenyl)methanol]
≤ 20 | C[C@@H](Cc1cccc(CN)c1)Nc1nccc(N(C)c2cncc(-c3ccccc3)n2)n1 [Example 122, (S)-N^2-(1-(3-(Aminomethyl)phenyl)propan-2-yl)-N^4-methyl-N^4-(6-phenylpyrazin-2-yl)pyrimidine-2,4-diamine]
≤ 20 | C[C@@H](Cc1cccc(CN)c1)Nc1nccc(N(C)c2ccnc(-c3cccc(F)c3)n2)n1 [Example 85, N^2-((S)-1-(3-(Aminomethyl)phenyl)propan-2-yl)-N^4-(2-(3-fluorophenyl)pyrimidin-4-yl)-N^4-methylpyrimidine-2,4-diamine]
≤ 20 | CN(c1ccnc(NCC(c2cccnc2)N2CCOCC2)n1)c1ccnc(-c2ccccc2)n1 (stereo not shown) [Example 108, N^4-Methyl-N^2-(2-morpholino-2-(pyridin-3-yl)ethyl)-N^4-(2-phenylpyrimidin-4-yl)pyrimidine-2,4-diamine]
≤ 20 | Cc1nccn1-c1nccc(N(C)c2ccnc(-c3ccccc3)n2)n1 [N-methyl-N-(2-(2-methyl-1H-imidazol-1-yl)pyrimidin-4-yl)-2-phenylpyrimidin-4-amine]
≤ 20 | CN(c1ccnc(NC[C@@H](O)c2ccccc2)n1)c1ccnc(-c2ccccc2)n1 [Example 111, (S)-2-(4-(Methyl(2-phenylpyrimidin-4-yl)amino)pyrimidin-2-ylamino)-1-phenyl-ethanol]
≤ 20 | CN(c1cccc(-c2ccoc2)n1)c1ccnc(NCCc2ccccc2)n1 [Example 146, N^4-(6-(Furan-3-yl)pyridin-2-yl)-N^4-methyl-N^2-phenethylpyrimidine-2,4-diamine]
≤ 20 | C[C@@H](Cc1cccc([C@@H](C)N)c1)Nc1nccc(N(C)c2cc(-c3ccccc3)c(=O)n(C)c2)n1 [Example 179, 5-((2-((S)-1-(3-((R)-1-Aminoethyl)phenyl)propan-2-ylamino)pyrimidin-4-yl)(methyl)amino)-1-methyl-3-phenylpyridin-2(1H)-one]
≤ 20 | CC(=O)N1CCC(Nc2nccc(N(C)c3cc(-c4ccccc4)c(=O)n(C)c3)n2)CC1 [Example 175, 5-((2-(1-Acetylpiperidin-4-ylamino)pyrimidin-4-yl)(methyl)amino)-1-methyl-3-phenylpyridin-2(1H)-one]
≤ 20 | C[C@@H](Cc1cccc(C2(N)CC2)c1)Nc1nccc(N(C)c2ccnc(-c3ccccc3)n2)n1 [Example 7, (S)-N^2-(1-(3-(1-Aminocyclopropyl)phenyl)propan-2-yl)-N^4-methyl-N^4-(2-phenylpyrimidin-4-yl)pyrimidine-2,4-diamine]
≤ 20 | CN(c1ccnc(NCCc2cccnc2)n1)c1ccnc(-c2ccccc2F)n1 [Example 71, N^4-(2-(2-Fluorophenyl)pyrimidin-4-yl)-N^4-methyl-N^2-(2-(pyridin-3-yl)ethyl)-pyrimidine-2,4-diamine]
≤ 20 | CN(c1ccnc(NCCN2CCOCC2)n1)c1ccnc(-c2ccccc2)n1 [Example 96, N^4-Methyl-N^2-(2-morpholinoethyl)-N^4-(2-phenylpyrimidin-4-yl)pyrimidine-2,4-diamine]
≤ 20 | Clc1ccccc1CCNc1nccc(Nc2cc(-c3ccccc3)c(Cl)nn2)n1 [Example 183, N^2-(2-Chlorophenethyl)-N4-(6-chloro-5-phenylpyridazin-3-yl)pyrimidine-2,4-di-amine]
≤ 20 | Cc1cc(N(C)c2ccnc(-c3ccccc3)n2)nc(NC2CCC(N)CC2)n1 (stereo not shown) [Example 33, N2-((1r,4r)-4-Aminocyclohexyl)-N4,6-dimethyl-N4-(2-phenylpyrimidin-4-yl)pyrimidine-2,4-diamine]
≤ 20 | CN(c1ccnc(NCC(O)c2ccccn2)n1)c1ccnc(-c2ccccc2)n1 (stereo not shown) [Example 113]
≤ 20 | CN(c1ccnc(NCCc2ccccc2Cl)n1)c1ccnc(-c2ccccc2)n1 [Example 14, N^2-(2-Chlorophenethyl)-N^4-methyl-N^4-(2-phenylpyrimidin-4-yl)pyrimidine-2,4-diamine]
≤ 20 | Cn1c(Nc2ccnc(NCCc3ccccc3Cl)n2)cc(-c2ccccc2)cc1=O [Example 160, 6-(2-(2-Chlorophenethylamino)pyrimidin-4-ylamino)-1-methyl-4-phenylpyridin-2(1H)-one]
